This test concerns the target T1, human PD-1 / PD-L1-Ig binding on Jurkat cell line over-expressing human PD-1 (Jurkat-PD-1) (Homo sapiens, UniProt Q15116).
T1 construct: expressed in transfected cells; host or cells: Jurkat
The test can be described thus: Jurkat-PD-1 Cell Binding High-Content Screening Assay (CBA). Type of test: cell-based. Particulars: PE-labeled PD-L1-Ig 20 nM final. A digest of the protocol: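 Compounds were preincubated with Jurkat-hPD-1 cells in DMEM plus 10% fetal calf serum for 2 h at 37° C. Phycoerythrin-labeled PD-L1-Ig (20 nM final) was then added for 1 hour. Cells were fixed in 4% paraformaldehyde with Hoechst 33342, and bound fluorescence was quantified by high-content imaging.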

[1] abbreviates: Jurkat-PD-1 cells, read-out: Jurkat HPD1_PDL1 IC50.

Read-outs that look alike come from different tables or passages of the source. Where a SMILES comes first, the peptide text is derived from it. Bridges are numbered along the chain shown (N, C = ends). [ ]: non-standard residue; d: D form. The star is where a group is joined. ξ: configuration not given here. Phe(4-COOH) = N[C@@H](Cc1ccc(C(=O)O)cc1)C(=O)O; Bip = N[C@@H](Cc1ccc(-c2ccccc2)cc1)C(=O)O; Phe(3-Me) = Cc1cccc(C[C@H](N)C(=O)O)c1; aIle = CC[C@@H](C)[C@H](N)C(=O)O; 4Pal = N[C@@H](Cc1ccncc1)C(=O)O; Cha = N[C@@H](CC1CCCCC1)C(=O)O; Cit = NC(=O)NCCC[C@H](N)C(=O)O; Thr(3ξ) = CC(O)[C@H](N)C(=O)O; Carboxymethyl = O=C(O)C*; Nle = CCCC[C@H](N)C(=O)O; Orn = NCCC[C@H](N)C(=O)O; Pra = C#CC[C@H](N)C(=O)O; Dab = NCC[C@H](N)C(=O)O; Nva = CCC[C@H](N)C(=O)O; Dap = NC[C@H](N)C(=O)O

T1 sequence (Q15116 25-288): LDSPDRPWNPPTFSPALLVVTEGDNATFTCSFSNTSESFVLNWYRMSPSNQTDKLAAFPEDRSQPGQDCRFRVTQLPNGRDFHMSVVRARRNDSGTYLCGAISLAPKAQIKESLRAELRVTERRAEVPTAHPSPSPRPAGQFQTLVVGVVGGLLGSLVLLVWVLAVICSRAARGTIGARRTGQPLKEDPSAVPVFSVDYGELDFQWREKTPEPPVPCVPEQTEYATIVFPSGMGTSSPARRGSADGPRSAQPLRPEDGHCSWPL

As to `Cc1cccc(C[C@@H]2NC(=O)[C@H](CC(=O)O)NC(=O)[C@H](Cc3ccc(C(=O)O)cc3)NC(=O)[C@H](Cc3ccncc3)NC(=O)CSC[C@@H](C(=O)N[C@@H](CC(N)=O)C(N)=O)NC(=O)[C@H](CCC(=O)O)NC(=O)[C@H](C(C)C)NC(=O)[C@H](CC3CCCCC3)NC(=O)[C@H](CCN)NC(=O)[C@@H](CC(C)C)NC(=O)[C@H](CCCN)NC(=O)[C@H](Cc3ccc(OCC(=O)O)cc3)NC(=O)[C@H](Cc3ccc(-c4ccccc4)cc3)NC(=O)[C@H](Cc3ccc(OCC(=O)O)cc3)NC2=O)c1` [Compound 2304] ({CH2CO}-[4Pal][Phe(4-COOH)]D[Phe(3-Me)]Y(Carboxymethyl)[Bip]Y(Carboxymethyl)[Orn][dL][Dab][Cha]VECN-NH2; thioether N-14), under setting [1], the half-inhibitory concentration (IC50) came out at 15 nM.

On to `CC(C)C[C@H]1NC(=O)[C@H](CCCN)NC(=O)[C@H](CCCNC(N)=O)NC(=O)[C@H](Cc2ccc(-c3ccccc3)cc2)NC(=O)[C@H](C(C)C)NC(=O)[C@H](Cc2c[nH]c3ccccc23)NC(=O)[C@H](CC(=O)O)NC(=O)[C@H](Cc2ccc(OCC(=O)O)cc2)NC(=O)[C@H](CN)NC(=O)CSC[C@@H](C(=O)N[C@@H](C)C(N)=O)NC(=O)[C@H]([C@@H](C)O)NC(=O)[C@H]([C@@H](C)O)NC(=O)[C@H](CC2CCCCC2)NC(=O)[C@H](CCN)NC1=O` [Compound 1318] ({CH2CO}-[Dap]Y(Carboxymethyl)DWV[Bip][Cit][Orn][dL][Dab][Cha]TTCA-NH2; thioether N-14), for which the IC50 under setting [1] is 10.6 nM.

Consider `CC(=O)NCCCC[C@@H]1NC(=O)[C@H](Cc2ccc(-c3ccccc3)cc2)NC(=O)[C@H](CC(C)C)NC(=O)[C@H](Cc2c[nH]c3ccccc23)NC(=O)[C@H](CC(=O)O)NC(=O)[C@H](Cc2ccc(OCC(=O)O)cc2)NC(=O)[C@H](C(C)O)NC(=O)CSC[C@@H](C(N)=O)NC(=O)[C@H](C(C)O)NC(=O)[C@H](C(C)C)NC(=O)[C@H](CC2CCCCC2)NC(=O)[C@H](CCC(=O)O)NC(=O)[C@@H](CC(C)C)NC(=O)[C@H](CCC(=O)O)NC1=O` (stereo partly drawn) [Compound 2607] ({CH2CO}-[Thr(3ξ)]Y(Carboxymethyl)DWL[Bip]K(Ac)E[dL]E[Cha]V[Thr(3ξ)]C-NH2; thioether N-14), for which the IC50 under setting [1] stood at 389 nM.

Regarding `Cc1cccc(C[C@@H]2NC(=O)[C@H](CC(=O)O)NC(=O)[C@H](Cc3ccncc3)NC(=O)[C@H](Cc3ccc(OCC(=O)O)cc3)NC(=O)CSC[C@@H](C(=O)N[C@@H](C)C(N)=O)NC(=O)[C@H]([C@@H](C)O)NC(=O)[C@H](C(C)C)NC(=O)[C@H](CC(C)C)NC(=O)[C@H](CCN)NC(=O)[C@@H](CC(C)C)NC(=O)[C@H](CCCN)NC(=O)[C@H](C(C)C)NC(=O)[C@H](Cc3ccc(-c4ccccc4)cc3)NC(=O)[C@H](C(C)C)NC2=O)c1` [Compound 1222] ({CH2CO}-Y(Carboxymethyl)[4Pal]D[Phe(3-Me)]V[Bip]V[Orn][dL][Dab]LVTCA-NH2; thioether N-14), the concentration for half-maximal inhibition (IC50) under setting [1] stood at 14.7 nM.

For `CC(C)C[C@H]1NC(=O)[C@H](CCCN)NC(=O)[C@H](CCC(=O)O)NC(=O)[C@H](Cc2ccc(-c3ccccc3)cc2)NC(=O)[C@H](C(C)C)NC(=O)[C@H](Cc2cccc(C(F)(F)F)c2)NC(=O)[C@H](CC(=O)O)NC(=O)[C@H](Cc2ccc(O)cc2)NC(=O)[C@H](Cc2ccncc2)NC(=O)CSC[C@@H](C(=O)N[C@@H](C)C(N)=O)NC(=O)[C@H]([C@@H](C)O)NC(=O)[C@H](C(C)C)NC(=O)[C@H](CC2CCCCC2)NC(=O)[C@H](CCN)NC1=O` [Compound 1464], the IC50 under setting [1] is 25.8 nM.

As for `C#CC[C@H](NC(=O)[C@@H]1CSCC(=O)N[C@@H](CCC)C(=O)N[C@@H](Cc2ccc(OCC(=O)O)cc2)C(=O)N[C@@H](CC(=O)O)C(=O)N[C@@H](Cc2cccc(C)c2)C(=O)N[C@@H](Cc2ccc(OCC(=O)O)cc2)C(=O)N[C@@H](Cc2ccc(-c3ccccc3)cc2)C(=O)N[C@@H](Cc2ccc(OCC(=O)O)cc2)C(=O)N[C@@H](CCCC)C(=O)N[C@H](CC(C)C)C(=O)N[C@@H](CCN)C(=O)N[C@@H](CC2CCCCC2)C(=O)N[C@@H](C(C)C)C(=O)N[C@@H](CCC(=O)O)C(=O)N1)C(=O)O` [Compound 2703] ({CH2CO}-[Nva]Y(Carboxymethyl)D[Phe(3-Me)]Y(Carboxymethyl)[Bip]Y(Carboxymethyl)[Nle][dL][Dab][Cha]VEC[Pra]-OH; thioether N-14), the 50% inhibitory concentration (IC50) under setting [1] stood at 412 nM.

As to `CC[C@@H](C)[C@@H]1NC(=O)[C@H](Cc2ccc(-c3ccccc3)cc2)NC(=O)[C@H](CC(C)C)NC(=O)[C@H](Cc2cccc(C)c2)NC(=O)[C@H](CC(=O)O)NC(=O)[C@H](Cc2ccc(OCC(=O)O)cc2)NC(=O)[C@H](Cc2ccc(OCC(=O)O)cc2)NC(=O)CSC[C@@H](C(N)=O)NC(=O)[C@H](CO)NC(=O)[C@H](C(C)C)NC(=O)[C@H](CC(C)C)NC(=O)[C@H](CCN)NC(=O)[C@@H](CC(C)C)NC(=O)[C@H](CCCN)NC1=O` [Compound 1653] ({CH2CO}-Y(Carboxymethyl)Y(Carboxymethyl)D[Phe(3-Me)]L[Bip][aIle][Orn][dL][Dab]LVSC-NH2; thioether N-14), the half-inhibitory concentration (IC50) under setting [1] worked out at 33.5 nM.

On to `Cc1cccc(C[C@@H]2NC(=O)[C@H](CC(=O)O)NC(=O)[C@H](Cc3ccc(C(=O)O)cc3)NC(=O)[C@H](Cc3ccncc3)NC(=O)CSC[C@@H](C(N)=O)NC(=O)[C@H](CC(N)=O)NC(=O)[C@H](C(C)C)NC(=O)[C@H](CC3CCCCC3)NC(=O)[C@H](CCN)NC(=O)[C@@H](CC(C)C)NC(=O)[C@H](CCCN)NC(=O)[C@H](CCCNC(N)=O)NC(=O)[C@H](Cc3ccc(-c4ccccc4)cc3)NC(=O)[C@H](C(C)C)NC2=O)c1` [Compound 2271] ({CH2CO}-[4Pal][Phe(4-COOH)]D[Phe(3-Me)]V[Bip][Cit][Orn][dL][Dab][Cha]VNC-NH2; thioether N-14), for which the IC50 under setting [1] worked out at 16 nM.

`CC(C)C[C@@H]1NC(=O)[C@H](Cc2c[nH]c3ccccc23)NC(=O)[C@H](CC(=O)O)NC(=O)[C@H](Cc2ccc(O)cc2)NC(=O)[C@H](Cc2ccccc2)NC(=O)CSC[C@@H](C(=O)NCC(N)=O)NC(=O)[C@H]([C@@H](C)O)NC(=O)[C@H](C(C)C)NC(=O)[C@H](CC(C)C)NC(=O)[C@H](CC(N)=O)NC(=O)[C@@H](C)NC(=O)[C@H](CCN)NC(=O)[C@H](C(C)C)NC(=O)[C@H](Cc2ccc(-c3ccccc3)cc2)NC1=O` [Compound 1099] ({CH2CO}-FYDWL[Bip]V[Dab][dA]NLVTCG-NH2; thioether N-14) displayed an IC50 (Jurkat HPD1_PDL1 IC50, Jurkat-PD-1 cells) of 84.5 nM.

For `CC(C)C[C@@H]1NC(=O)[C@H](Cc2c[nH]c3ccccc23)NC(=O)[C@H](CC(=O)O)NC(=O)[C@H](Cc2ccncc2)NC(=O)[C@H](Cc2ccc(OCC(=O)O)cc2)NC(=O)CSC[C@@H](C(=O)NCC(N)=O)NC(=O)[C@H](CO)NC(=O)[C@H](C(C)C)NC(=O)[C@H](CC(C)C)NC(=O)[C@H](CC(N)=O)NC(=O)[C@@H](CC(C)C)NC(=O)[C@H](CCN)NC(=O)[C@H](C(C)C)NC(=O)[C@H](Cc2ccc(-c3ccccc3)cc2)NC1=O` [Compound 1282] ({CH2CO}-Y(Carboxymethyl)[4Pal]DWL[Bip]V[Dab][dL]NLVSCG-NH2; thioether N-14), the IC50 under setting [1] was 11.8 nM.

The values above are taken from patent publication US20250163104A1, “MACROCYCLIC IMMUNOMODULATORS” (priority 2021, published 2025).
